Twelve compounds from ChEMBL document CHEMBL5465560, “Selectivity Literature for EUbOPEN Chemogenomic Library” (2024) can be followed below.

The target in test [1] is Serine/threonine-protein kinase PLK2 (Homo sapiens, UniProt Q9NYY3). Put plainly: Selectivity interaction (Ambit KINOMEscan and KiNATiv profiling in Jurkat cells) EUB0000090b PLK2. Conditions: at 1 µM. It is filed as cell-based.
The target in test [2] is T1, Phosphorylase b kinase gamma catalytic chain, liver/testis isoform (Homo sapiens) (UniProt P15735).
T1 sequence (whole entry): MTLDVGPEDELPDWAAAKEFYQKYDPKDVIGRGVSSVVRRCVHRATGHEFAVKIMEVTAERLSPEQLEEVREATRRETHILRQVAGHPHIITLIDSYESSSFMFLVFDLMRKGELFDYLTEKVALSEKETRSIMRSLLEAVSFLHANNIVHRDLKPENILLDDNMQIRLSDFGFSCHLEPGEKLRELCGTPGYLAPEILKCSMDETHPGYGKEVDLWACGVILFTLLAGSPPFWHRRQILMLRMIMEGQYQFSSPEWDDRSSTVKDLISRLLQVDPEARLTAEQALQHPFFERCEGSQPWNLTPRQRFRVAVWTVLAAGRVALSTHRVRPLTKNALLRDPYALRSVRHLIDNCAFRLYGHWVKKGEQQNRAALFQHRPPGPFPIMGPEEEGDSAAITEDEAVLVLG
Put plainly: Selectivity interaction (KinomeScan (DiscoverX)) EUB0000666a PHKG2. Conditions: at 10 µM.

Test [3] deals with Epithelial discoidin domain-containing receptor 1 (Homo sapiens) (UniProt Q08345). Put plainly: Selectivity interaction (KinomeScan (DiscoverX)) EUB0000666a DDR1. Conditions: at 10 µM.
Chain of Epithelial discoidin domain-containing receptor 1 (Homo sapiens) (Q08345 whole entry, the tested form may be a part): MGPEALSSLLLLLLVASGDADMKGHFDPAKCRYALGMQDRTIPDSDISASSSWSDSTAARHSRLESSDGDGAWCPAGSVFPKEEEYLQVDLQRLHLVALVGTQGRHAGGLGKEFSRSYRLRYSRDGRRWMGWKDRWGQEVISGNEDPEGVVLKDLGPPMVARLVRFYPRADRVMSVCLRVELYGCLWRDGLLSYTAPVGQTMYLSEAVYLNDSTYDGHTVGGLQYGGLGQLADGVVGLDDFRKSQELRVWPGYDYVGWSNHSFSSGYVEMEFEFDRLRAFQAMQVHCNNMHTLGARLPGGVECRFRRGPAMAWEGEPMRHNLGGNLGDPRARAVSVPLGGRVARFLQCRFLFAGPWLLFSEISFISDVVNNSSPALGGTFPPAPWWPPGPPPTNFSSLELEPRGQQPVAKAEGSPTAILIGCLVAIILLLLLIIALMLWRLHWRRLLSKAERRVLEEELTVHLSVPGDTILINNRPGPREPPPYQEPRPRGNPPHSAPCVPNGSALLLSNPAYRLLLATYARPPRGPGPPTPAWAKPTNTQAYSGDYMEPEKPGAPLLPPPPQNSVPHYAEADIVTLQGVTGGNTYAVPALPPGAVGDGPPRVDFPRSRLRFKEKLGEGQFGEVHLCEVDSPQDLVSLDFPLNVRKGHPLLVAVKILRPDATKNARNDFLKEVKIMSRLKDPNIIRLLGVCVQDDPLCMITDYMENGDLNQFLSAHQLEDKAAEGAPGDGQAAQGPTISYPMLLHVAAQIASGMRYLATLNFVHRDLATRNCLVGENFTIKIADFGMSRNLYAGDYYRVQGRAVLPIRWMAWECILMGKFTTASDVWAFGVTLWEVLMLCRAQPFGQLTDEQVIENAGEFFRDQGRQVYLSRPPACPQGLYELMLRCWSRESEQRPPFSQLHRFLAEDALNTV
In test [4] the target is STE20-like serine/threonine-protein kinase (Homo sapiens, UniProt Q9H2G2). The test is described as follows: Selectivity interaction (KinomeScan (DiscoverX)) EUB0000666a SLK. The conditions noted are these: at 10 µM.
In test [5] the target is Histone-lysine N-methyltransferase, H3 lysine-79 specific (Homo sapiens, UniProt Q8TEK3). Conditions: at 1 µM.
Test [6] has as its target BDNF/NT-3 growth factors receptor (Homo sapiens) (UniProt Q16620). Put plainly: Selectivity interaction (KinomeScan (DiscoverX)) EUB0000229b NTRK2. The conditions noted are these: at 10 µM.
Test [7] has as its target T2, Interleukin-1 receptor-associated kinase 4 (Homo sapiens) (UniProt Q9NWZ3).
T2 sequence (whole entry): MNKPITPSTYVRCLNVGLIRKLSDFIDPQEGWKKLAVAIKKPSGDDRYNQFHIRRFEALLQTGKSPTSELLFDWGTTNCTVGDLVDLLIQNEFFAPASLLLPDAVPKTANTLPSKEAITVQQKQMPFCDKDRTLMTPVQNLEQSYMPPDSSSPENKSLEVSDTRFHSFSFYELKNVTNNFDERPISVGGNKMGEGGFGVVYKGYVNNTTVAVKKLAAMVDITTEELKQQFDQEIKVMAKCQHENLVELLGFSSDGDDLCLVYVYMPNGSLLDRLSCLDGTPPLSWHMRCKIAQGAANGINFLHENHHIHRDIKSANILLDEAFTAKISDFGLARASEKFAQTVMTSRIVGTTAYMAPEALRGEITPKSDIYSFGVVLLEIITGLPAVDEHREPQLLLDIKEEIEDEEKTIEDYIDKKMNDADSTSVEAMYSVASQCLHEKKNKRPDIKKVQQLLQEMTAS
The test is described as follows: Selectivity interaction (KinomeScan (DiscoverX)) EUB0001079a IRAK4. Conditions: at 1 µM.

The target of test [8] is Macrophage colony-stimulating factor 1 receptor (Homo sapiens) (UniProt P07333). The test is described as follows: Selectivity interaction (KinomeScan (DiscoverX)) EUB0001619a CSF1R. Conditions: at 1 µM.
Chain of Macrophage colony-stimulating factor 1 receptor (Homo sapiens) (P07333 whole entry): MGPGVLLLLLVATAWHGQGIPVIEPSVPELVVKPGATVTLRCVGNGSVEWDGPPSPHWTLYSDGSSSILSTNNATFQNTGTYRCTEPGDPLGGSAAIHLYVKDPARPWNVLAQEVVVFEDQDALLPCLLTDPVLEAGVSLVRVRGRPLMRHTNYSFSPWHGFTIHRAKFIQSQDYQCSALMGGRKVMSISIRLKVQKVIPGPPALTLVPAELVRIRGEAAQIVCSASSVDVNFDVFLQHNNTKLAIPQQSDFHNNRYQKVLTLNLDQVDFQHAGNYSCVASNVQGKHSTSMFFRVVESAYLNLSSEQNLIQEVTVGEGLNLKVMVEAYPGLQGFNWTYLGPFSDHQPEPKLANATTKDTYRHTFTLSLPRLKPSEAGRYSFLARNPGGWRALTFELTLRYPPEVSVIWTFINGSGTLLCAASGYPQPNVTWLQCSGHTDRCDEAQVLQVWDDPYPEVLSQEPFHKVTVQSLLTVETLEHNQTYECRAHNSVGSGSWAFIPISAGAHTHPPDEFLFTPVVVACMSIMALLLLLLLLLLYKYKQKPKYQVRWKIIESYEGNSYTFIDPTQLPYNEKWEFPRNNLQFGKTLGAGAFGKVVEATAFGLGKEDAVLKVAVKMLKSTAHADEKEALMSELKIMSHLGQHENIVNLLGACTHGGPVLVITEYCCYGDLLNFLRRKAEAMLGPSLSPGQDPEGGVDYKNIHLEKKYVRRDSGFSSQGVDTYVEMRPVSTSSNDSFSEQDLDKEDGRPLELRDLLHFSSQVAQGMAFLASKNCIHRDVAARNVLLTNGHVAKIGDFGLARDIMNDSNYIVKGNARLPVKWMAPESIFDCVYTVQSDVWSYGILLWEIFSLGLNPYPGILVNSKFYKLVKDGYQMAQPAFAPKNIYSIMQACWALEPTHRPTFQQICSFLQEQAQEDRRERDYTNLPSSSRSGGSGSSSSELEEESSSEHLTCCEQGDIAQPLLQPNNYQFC
Test [9] concerns the target Cyclin-dependent kinase 5/CDK5 activator 1 (Homo sapiens) (UniProt Q00535+Q15078). The test is described as follows: Selectivity interaction (Kinase panel (Invitrogen)) EUB0000639a CDK5. It is filed as protein-complex assay. The conditions noted are these: at 200 nM.
Test [10] addresses Dual specificity mitogen-activated protein kinase kinase 1 (Homo sapiens, UniProt Q02750). The test is described as follows: Selectivity interaction (Kinase panel (Invitrogen)) EUB0000639a MAP2K1. The conditions noted are these: at 200 nM.
Test [11] deals with Calcium/calmodulin-dependent protein kinase type II subunit alpha (Homo sapiens, UniProt Q9UQM7). Put plainly: Selectivity interaction (Kinase screening (Upstate/Millipore)) EUB0000604a CAMK2A.
Chain of Calcium/calmodulin-dependent protein kinase type II subunit alpha (Q9UQM7 whole entry): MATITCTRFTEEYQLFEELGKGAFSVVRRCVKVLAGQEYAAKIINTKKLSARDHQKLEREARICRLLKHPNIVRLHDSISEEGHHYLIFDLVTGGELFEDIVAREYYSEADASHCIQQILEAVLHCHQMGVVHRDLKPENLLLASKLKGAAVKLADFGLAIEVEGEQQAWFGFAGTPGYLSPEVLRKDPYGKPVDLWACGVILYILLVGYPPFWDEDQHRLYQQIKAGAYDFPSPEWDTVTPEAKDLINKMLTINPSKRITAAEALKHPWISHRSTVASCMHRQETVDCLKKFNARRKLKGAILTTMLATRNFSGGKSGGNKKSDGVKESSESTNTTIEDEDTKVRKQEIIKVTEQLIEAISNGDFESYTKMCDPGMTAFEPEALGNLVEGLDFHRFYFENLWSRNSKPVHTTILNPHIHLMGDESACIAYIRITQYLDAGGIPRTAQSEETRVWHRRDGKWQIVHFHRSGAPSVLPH
Test [12] deals with Angiopoietin-1 receptor (Homo sapiens) (UniProt Q02763). The test is described as follows: Selectivity interaction (ProQinase) EUB0000171b TEK. Conditions: at 1 µM.
For test [13], the target named is T3, Tyrosine-protein kinase JAK3 (Homo sapiens) (UniProt P52333).
T3 sequence (whole entry): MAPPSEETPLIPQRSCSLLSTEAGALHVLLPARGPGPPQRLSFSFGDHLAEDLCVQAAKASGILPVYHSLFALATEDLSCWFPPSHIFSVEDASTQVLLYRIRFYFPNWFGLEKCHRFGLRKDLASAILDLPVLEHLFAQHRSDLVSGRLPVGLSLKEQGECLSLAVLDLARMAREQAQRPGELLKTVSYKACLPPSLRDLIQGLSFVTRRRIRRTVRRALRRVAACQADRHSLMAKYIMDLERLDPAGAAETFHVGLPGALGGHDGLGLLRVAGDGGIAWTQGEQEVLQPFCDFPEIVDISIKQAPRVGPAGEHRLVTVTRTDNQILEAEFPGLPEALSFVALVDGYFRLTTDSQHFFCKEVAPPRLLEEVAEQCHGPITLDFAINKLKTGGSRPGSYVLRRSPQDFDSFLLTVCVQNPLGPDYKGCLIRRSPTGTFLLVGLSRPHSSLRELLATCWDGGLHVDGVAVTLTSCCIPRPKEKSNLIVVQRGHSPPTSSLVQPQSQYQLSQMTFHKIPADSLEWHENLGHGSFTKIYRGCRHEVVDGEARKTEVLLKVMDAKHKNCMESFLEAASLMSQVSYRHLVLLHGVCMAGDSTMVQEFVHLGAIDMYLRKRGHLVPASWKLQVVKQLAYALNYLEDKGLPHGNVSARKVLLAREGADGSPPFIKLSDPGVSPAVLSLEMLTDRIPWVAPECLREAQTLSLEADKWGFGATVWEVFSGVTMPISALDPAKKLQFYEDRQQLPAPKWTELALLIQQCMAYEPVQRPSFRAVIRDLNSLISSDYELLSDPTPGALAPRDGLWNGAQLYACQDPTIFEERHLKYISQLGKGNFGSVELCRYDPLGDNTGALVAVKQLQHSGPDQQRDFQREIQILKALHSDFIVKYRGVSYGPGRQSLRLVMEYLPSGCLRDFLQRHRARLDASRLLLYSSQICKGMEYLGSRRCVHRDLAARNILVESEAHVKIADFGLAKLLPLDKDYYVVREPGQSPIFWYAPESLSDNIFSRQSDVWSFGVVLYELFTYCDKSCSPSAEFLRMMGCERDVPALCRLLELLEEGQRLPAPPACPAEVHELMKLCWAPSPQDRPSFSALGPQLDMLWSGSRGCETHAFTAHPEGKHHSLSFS
Put plainly: Selectivity interaction (Antiproliferative activity against Tel-kinase transformed Ba/F3 cell line) EUB0000045b JAK3. The conditions noted are these: BaF3. It is filed as cell-based.

Test [14] addresses Ribosomal protein S6 kinase alpha-6 (Homo sapiens, UniProt Q9UK32). Put plainly: Selectivity interaction (Upstate Kinase Profiler service (Millipore)) EUB0000056c RPS6KA6. Conditions: at 1 µM.
Test [15] deals with Death-associated protein kinase 1 (Homo sapiens, UniProt P53355). Put plainly: Selectivity interaction (KinomeScan (DiscoverX)) EUB0000595a DAPK1. Conditions: at 10 µM.
Chain of Death-associated protein kinase 1 (P53355 whole entry, looked up): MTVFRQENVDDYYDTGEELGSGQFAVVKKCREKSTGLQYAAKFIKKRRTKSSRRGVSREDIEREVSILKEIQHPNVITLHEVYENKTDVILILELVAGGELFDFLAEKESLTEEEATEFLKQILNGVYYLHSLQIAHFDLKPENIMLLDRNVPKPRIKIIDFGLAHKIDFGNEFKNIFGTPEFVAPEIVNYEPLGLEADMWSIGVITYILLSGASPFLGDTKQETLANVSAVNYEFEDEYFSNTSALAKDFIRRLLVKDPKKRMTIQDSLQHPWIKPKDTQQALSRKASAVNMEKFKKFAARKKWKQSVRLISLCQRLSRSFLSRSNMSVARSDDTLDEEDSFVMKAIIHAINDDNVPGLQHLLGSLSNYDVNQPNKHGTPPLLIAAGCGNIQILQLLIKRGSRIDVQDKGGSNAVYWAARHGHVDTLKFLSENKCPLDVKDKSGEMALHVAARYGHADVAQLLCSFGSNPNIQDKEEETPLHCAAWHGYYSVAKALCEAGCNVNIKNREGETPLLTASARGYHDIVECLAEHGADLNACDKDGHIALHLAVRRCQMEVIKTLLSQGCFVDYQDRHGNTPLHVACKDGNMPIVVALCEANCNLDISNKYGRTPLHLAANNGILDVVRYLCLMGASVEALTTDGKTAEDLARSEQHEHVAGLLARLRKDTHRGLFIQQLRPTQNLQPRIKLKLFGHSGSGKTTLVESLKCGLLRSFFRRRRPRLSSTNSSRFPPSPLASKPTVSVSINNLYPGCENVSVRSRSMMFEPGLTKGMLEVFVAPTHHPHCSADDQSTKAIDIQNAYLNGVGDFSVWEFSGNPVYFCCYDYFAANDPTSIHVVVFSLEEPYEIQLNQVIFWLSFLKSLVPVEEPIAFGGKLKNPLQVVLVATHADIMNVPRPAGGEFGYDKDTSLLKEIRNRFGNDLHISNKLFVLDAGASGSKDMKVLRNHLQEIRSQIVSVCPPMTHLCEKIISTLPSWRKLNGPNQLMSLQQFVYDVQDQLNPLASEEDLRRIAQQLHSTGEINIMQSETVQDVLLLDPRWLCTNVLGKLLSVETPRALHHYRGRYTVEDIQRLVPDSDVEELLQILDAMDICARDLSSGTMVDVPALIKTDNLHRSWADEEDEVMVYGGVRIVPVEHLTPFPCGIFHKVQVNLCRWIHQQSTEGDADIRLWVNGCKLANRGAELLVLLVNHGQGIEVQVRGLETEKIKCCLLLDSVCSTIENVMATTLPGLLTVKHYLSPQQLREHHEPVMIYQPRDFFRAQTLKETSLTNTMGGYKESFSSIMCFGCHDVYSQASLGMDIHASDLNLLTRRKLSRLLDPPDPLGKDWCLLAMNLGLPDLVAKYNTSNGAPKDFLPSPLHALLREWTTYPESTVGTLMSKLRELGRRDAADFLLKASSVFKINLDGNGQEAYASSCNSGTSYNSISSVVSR

Chain of BDNF/NT-3 growth factors receptor (Homo sapiens) (Q16620 32-822 limits assumed): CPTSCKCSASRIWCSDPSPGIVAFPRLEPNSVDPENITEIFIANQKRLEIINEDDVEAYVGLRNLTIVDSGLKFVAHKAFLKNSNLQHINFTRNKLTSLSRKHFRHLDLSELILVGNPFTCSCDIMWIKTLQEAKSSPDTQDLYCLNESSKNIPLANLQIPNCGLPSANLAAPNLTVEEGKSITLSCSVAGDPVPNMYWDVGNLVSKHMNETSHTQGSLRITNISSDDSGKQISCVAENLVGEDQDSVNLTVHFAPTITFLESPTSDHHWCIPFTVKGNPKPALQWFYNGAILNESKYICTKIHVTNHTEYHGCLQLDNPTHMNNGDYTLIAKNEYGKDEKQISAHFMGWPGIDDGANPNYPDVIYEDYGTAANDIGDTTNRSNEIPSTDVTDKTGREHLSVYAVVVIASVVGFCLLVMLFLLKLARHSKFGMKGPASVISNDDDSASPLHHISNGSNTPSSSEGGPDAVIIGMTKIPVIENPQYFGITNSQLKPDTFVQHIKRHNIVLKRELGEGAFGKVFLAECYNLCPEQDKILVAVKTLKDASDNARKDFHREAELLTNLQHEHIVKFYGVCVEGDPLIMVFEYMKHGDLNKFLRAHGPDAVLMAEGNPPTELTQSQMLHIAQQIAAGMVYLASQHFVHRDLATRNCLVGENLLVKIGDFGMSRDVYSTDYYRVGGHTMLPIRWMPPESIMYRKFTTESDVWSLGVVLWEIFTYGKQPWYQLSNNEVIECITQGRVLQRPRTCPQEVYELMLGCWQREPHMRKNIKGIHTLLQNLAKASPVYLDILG
Chain of Dual specificity mitogen-activated protein kinase kinase 1 (Q02750 whole entry): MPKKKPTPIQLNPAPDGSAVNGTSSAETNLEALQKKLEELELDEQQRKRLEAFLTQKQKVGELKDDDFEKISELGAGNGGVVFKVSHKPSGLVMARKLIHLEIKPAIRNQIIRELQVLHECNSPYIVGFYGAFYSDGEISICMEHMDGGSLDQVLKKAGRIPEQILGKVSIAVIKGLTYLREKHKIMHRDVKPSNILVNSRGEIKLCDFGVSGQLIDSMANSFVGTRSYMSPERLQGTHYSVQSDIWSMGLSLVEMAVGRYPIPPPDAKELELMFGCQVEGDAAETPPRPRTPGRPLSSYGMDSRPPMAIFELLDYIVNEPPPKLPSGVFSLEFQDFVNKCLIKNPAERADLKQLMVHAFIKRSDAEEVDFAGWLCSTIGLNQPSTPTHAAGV

The compound `CN(C)C/C=C/C(=O)Nc1ccc(C(=O)N2CCCC(Nc3ncc(Cl)c(-c4c[nH]c5ccccc45)n3)C2)cc1` (stereo not given) displayed a % of control in test [1] of 89%.

Regarding `O=C(NOC[C@H](O)CO)c1ccc(F)c(F)c1Nc1ccc(I)cc1F`, the % of control is 93% in test [2], 50% in [3] and 93% in test [4].

The compound `CNCCN1CCC(c2cc(CN(C)C(=O)c3cccc(Oc4ccccc4)c3)ccn2)CC1` showed a % activity in test [5] above 90%. In the case of `COc1cc(N(C)c2ccnc3ccc(C(F)(F)F)cc23)cc(OC)c1OC`, the % binding in test [6] came out at 100%. For `Nc1cnc(N2CCc3cc(S(=O)(=O)Nc4c(F)cc(Cl)cc4F)cc(N4CCCC4=O)c32)nc1` [TP-020n], the % of control in [7] worked out at 100%. `N#Cc1cccc(-c2c[nH]c3ncnc(N4CCOCC4)c23)c1` had a % of control in test [8] of 87%. On to `CC[C@@H]1[C@H](F)C(=O)N[C@@H]1COc1nccc2cc(C(N)=O)c(OC)cc12` [ZIMLOVISERTIB], for which the % of inhibition in test [9] came to 4.16%; in test [10], 20.4%. Take `Cc1cnc(Nc2ccc(F)cc2Cl)nc1-c1c[nH]c(C(=O)N[C@H](CO)c2cccc(Cl)c2)c1`: the % of inhibition in [11] was 1%. For `C=CC(=O)Nc1cccc(C(=O)Nc2ccc(Nc3cc(-c4[nH]c(SC)nc4C)ccn3)cc2)c1`, the % of control in test [12] came to 95%. Turning to `C=CC(=O)Nc1cc(-n2c(=O)ccc3cnc4ccc(-c5ccc(NS(C)(=O)=O)cc5)cc4c32)ccc1C`, in test [13], the GIC50 worked out at 7.98 µM.

With `Cc1ccc(-c2ccc3c(ccc4sc5c(c43)NC[C@@H](C)NC5=O)n2)cn1`, the % of inhibition in test [14] turned out to be 38%. `COCC(=O)NC/C=C/c1ccc2ncnc(Nc3ccc(Oc4ccc(C)nc4)c(C)c3)c2c1` [CP-724714]: the % of control in test [15] came out at 76%.
